Broadly, the GI50 is the concentration at which growth is held to half of that of the control. A lower GI50 goes with more potent growth inhibition. Broadly, the DC50 is the midpoint of the concentration-degradation curve. Read a low DC50 as degradation at low concentration.

Holding throughout (format): cell-based
The subject of one experiment is LASCPC-01 cells. Briefly: Cell viability (Cell Titer Glo, 7 days), LASCPC-01 cells. As to conditions: 168 h, Cell Titer Glo relative to DMSO control after 7 days, FIG. 3 (B). The procedure:
(§1) FIG. 3. Provided compounds can provide various activities. (A): Provided technologies can reduce KAT2A and KAT2B levels and histone acetylation levels. […] Cell viability (Cell Titer Glo) data relative to DMSO control after 7 days of treatment with compound 22 are presented as examples to confirm inhibition. GI50=5 nM. (C): Provided technologies can modulate cell states and induce differentiation. […] (D): Provided technologies can reduce KAT2A and KAT2B levels and histone acetylation levels including in neuroendocrine prostate cancer primary patient organoid. […] Concentrations are nM. […] Cell viability data relative to DMSO control after 21 days of treatment with compound 22 are presented as examples to confirm inhibition. GI50=3 nM. (F): Provided technologies can modulate cell states and induce differentiation.

The next experiment relates to histone acetylation. Briefly: Western blot of histone acetylation in acute myeloid leukemia MOLM-13 cells, 48 h. As to conditions: FIG. 2 (A). On the procedure: (§2) FIG. 2. Provided compounds can provide various activities. (A): Provided technologies can reduce KAT2A and KAT2B levels and histone acetylation levels. […] Cell count data after 8 days of treatment with compound 22 relative to DMSO control are presented as examples to confirm inhibition. […] (C): Provided technologies can modulate cell states and induce differentiation. […] EC50=0.3 nM.
(In general: In western blotting, separated proteins are transferred to a membrane and probed.)

Experiment [1] has as its target T1, KAT2B (Homo sapiens, UniProt Q92831). Kind of experiment: Western blot of KAT2B level in acute myeloid leukemia MOLM-13 cells, 48 h. As to conditions: FIG. 2 (A). Set-up: degrader, Western blot. The procedure:
as §2

In a further experiment the target is KAT2A (Homo sapiens, UniProt Q92830). Briefly: Western blot of KAT2A level in NEPC primary patient organoid, 72 hours. Also on record: degrader, Western blot. As to conditions: FIG. 3 (D). On the procedure: as §1
KAT2A, sequence (Q92830 whole entry): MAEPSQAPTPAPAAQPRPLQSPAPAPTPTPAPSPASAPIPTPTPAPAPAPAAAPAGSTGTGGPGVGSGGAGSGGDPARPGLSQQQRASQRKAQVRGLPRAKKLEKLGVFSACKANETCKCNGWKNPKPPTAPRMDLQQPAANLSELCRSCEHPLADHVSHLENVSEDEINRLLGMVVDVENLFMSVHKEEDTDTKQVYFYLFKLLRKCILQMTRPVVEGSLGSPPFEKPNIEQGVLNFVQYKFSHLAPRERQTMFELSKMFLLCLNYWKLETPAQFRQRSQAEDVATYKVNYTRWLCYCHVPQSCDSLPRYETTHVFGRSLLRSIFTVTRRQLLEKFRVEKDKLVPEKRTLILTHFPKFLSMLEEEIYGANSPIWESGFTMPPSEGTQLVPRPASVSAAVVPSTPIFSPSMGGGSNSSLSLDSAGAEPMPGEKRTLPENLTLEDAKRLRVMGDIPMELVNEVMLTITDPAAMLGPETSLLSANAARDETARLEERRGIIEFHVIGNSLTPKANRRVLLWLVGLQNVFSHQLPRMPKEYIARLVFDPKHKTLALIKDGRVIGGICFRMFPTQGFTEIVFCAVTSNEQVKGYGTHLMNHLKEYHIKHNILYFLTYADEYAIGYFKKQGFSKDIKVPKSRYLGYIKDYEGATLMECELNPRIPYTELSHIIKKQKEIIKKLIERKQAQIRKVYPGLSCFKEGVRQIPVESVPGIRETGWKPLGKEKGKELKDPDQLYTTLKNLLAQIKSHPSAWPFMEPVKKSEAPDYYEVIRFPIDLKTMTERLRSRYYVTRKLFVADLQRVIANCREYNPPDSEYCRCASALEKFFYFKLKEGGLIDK
The test system of the next experiment is MOLM-13 cells. Briefly: Cell growth inhibition (cell count, 8 days), MOLM-13 cells. As to conditions: Homo sapiens, 192 h, cell count after 8 days relative to DMSO control, FIG. 2 (B). On the procedure:
as §2

In another experiment the test system is NCI-H1876 cells. Briefly: Cell growth inhibition, SCLC cell line NCI-H1876 (cell count, day 10). As to conditions: 240 h; NCI-H1876, day 10, cell count. From the text:
Among other things, provided technologies are useful for treating various diseases, disorders, or conditions. For example, in some embodiments, provided technologies are useful for treating cancer as confirmed in the present Example. […] In some embodiments, provided technologies can inhibit cell proliferation. In some embodiments, the present disclosure provides technologies for assessing various technologies, e.g., compounds, compositions, or methods. Among other things, the present Example provides technologies, e.g., cell growth inhibition assay, for assessing various technologies. […] In some embodiments, the following cell growth inhibition methods are utilized to assess provided technologies.
SCLC: SCLC cell lines NCI-H1048 and NCI-H1876 were cultured in DMEM F12 media with 5% FBS, 1% Penicillin/Streptomycin and HITES supplement (Hydrocortisone, Insulin, Transferrin, Estradiol and Sodium Selenite). NCI-H1048 cells were plated at 10,000 cells/well of a 24-well plate and NCI-H1876 cells were plated at 20,000 cells/well of a 96-well plate. Compound and media were replenished every two days out to day 11 and 10 respectively. Cells were then trypsinized and counted using either hemocytometer or an automated Countess cell counter.

For experiment [2], the system named is NEPC primary patient organoid. Briefly: Cell viability of NEPC primary patient organoid, 21 days. As to conditions: Homo sapiens, 504 h, cell viability relative to DMSO control after 21 days, FIG. 3 (E). The procedure: as §1
Another experiment relates to CD86 in MOLM-13 cells. Kind of experiment: Flow cytometry for CD86 (monocytic differentiation) in MOLM-13. As to conditions: FIG. 2. The procedure:
In some assessments, flow cytometry was utilized to assess levels of cells expressing certain polypeptides. For example, for flow cytometry for CD86 in MOLM-13, MOLM13 cells were stained with Live/Dead solution (Fixable Live/Dead NIR 1:100 in PBS) at RT, in the dark, for 20 min and then washed once with cell staining solution. The cells were then blocked with Human Fc Blocker solution at RT for 8 mins. Then they were labeled with CD86-APC R700 (565149, BD) (2.5 uL/test) on ice for 30 min in the dark. Following incubation, cells were washed once with cell staining solution. Flow cytometric acquisition was done on BD Celesta flow cytometer (BD Biosciences) and analyses were performed using Flow-Jo software.
(A flow cytometer gives signals particle by particle.)

Experiment [3] deals with T1, KAT2B. Kind of experiment: KAT2B reduction in LASCPC-01 cells. Also on record: degrader, Western blot. On the procedure:
MOLM-13 cells or NCI-H1048 cells were washed with PBS, then lysed with RIPA buffer containing 1×protease and phosphatase inhibitors (SantaCruz Biotechnologies Cat #sc-24948A). Protein was isolated by centrifugation at 12,000×g for 10 minutes at 4° C. and supernatant was collected. Protein was quantified via Bradford assay. Samples were diluted to 4 μg lysate in 16 μL RIPA buffer and then 4 μL of Jess Sample Buffer. Samples were heated at 95° C. for 5 minutes. Samples were loaded onto 12-230 kDa Jess™ Separation Module, 8×25 capillary cartridges (SM-W004, Biotechne). Antibodies loaded were: Primary antibody for KAT2A (GCN5L2 (C26A10) Rabbit mAb (3305, CST)) and for KAT2B (PCAF (C14G9)) Rabbit mAb (3378, CST) at 1:1000 and Anti-Rabbit Detection Module for Jess™ (Cat No #DM-001, Biotechne). Signal was detected by chemiluminescence.
In some embodiments, assessment was performed in LASCPC-01 cells, and reduction of KAT2A and KAT2B levels, including in some cases selectivity for one over the other, was confirmed. In some embodiments, DC50 and/or DC90 were assessed. In some embodiments, DC50 for various compounds was about or no more than about 1 nM. In some embodiments, DC90 for various compounds was about or no more than about 1 nM. In some embodiments, selectivity for the same polypeptide by a compound was observed across multiple types of cells (e.g., when assessed using DC50 and/or DC90). In some embodiments, certain compounds can provide improved properties and/or activities (e.g., potency). Data from certain assessments for certain compounds are presented below as examples (NT: not tested). It has been confirmed that various compounds described herein, including multiple compounds in Table 1, can be deemed to provide further improved properties and/or activities compared to the compound(s) in the table below for certain contexts, aspects, and/or uses.

T1 sequence (Q92831 whole entry): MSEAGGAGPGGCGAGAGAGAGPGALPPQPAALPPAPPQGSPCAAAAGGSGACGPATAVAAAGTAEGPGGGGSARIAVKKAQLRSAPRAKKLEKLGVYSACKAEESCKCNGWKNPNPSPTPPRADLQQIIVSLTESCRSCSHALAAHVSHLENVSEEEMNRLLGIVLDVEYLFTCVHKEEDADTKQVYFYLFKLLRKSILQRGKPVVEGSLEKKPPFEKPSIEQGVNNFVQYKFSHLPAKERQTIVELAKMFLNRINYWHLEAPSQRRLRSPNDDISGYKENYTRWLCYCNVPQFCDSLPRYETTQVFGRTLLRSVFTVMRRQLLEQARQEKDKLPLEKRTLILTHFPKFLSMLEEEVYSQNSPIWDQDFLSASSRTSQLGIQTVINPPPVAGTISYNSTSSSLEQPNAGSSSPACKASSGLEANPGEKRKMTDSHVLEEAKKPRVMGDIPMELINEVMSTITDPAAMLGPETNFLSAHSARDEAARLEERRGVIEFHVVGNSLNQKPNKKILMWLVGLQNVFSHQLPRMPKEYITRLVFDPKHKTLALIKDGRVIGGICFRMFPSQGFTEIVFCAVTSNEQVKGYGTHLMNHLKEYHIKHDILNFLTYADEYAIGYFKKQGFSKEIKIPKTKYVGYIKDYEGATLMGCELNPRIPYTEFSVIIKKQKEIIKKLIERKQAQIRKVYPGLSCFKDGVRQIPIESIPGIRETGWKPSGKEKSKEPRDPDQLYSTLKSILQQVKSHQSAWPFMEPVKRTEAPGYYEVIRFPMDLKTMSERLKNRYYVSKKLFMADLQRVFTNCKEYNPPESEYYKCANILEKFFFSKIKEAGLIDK

As for `CN1C[C@H](Nc2cnn(C)c(=O)c2Br)C[C@H](c2ccc(C(=O)N3CCC(CN4CCN(c5ccc6c(c5)CN(C5CCC(=O)NC5=O)C6=O)CC4)CC3)cc2)C1` (stereo partly drawn) [Compound 22, 3-(5-(4-((1-(4-((3R,5R)-5-((5-bromo-1-methyl-6-oxo-1,6-dihydropyridazin-4-yl)amino)-1-methylpiperidin-3-yl)benzoyl)piperidin-4-yl)methyl)piperazin-1-yl)-1-oxoisoindolin-2-yl)piperidine-2,6-dione], the GI50 with LASCPC-01 cells was found to be 5 nM; in the experiment with MOLM-13 cells, 1.2 nM; in the experiment with NCI-H1876 cells, 1 nM; in [2] it was 3 nM. In the experiment on histone acetylation, the “reduction of histone acetylation level” value is on record as “confirm such reduction”. The “reduction of KAT2B level” value at KAT2B [1] is recorded as “confirm such reduction”. Moreover, at KAT2A, the “reduction of KAT2A level” value is given as “confirmed such reductions”. The “induction of differentiation (CD86)” value in the experiment on CD86 in MOLM-13 cells is given as “induce differentiation (e.g., monocytic differentiation as assessed using CD86)”. This compound displayed a DC50 on KAT2B [3] (LASCPC-01, KAT2B) of 0.16 nM. Besides, the EC90 at KAT2B [3] (LASCPC-01, KAT2B, read-out: DC90 (the source's name)) was determined as 0.42 nM. The KAT2B levels result on KAT2B [3] (LASCPC-01 cells, FIG. 3) was “potently reduce KAT2A and KAT2B levels”.

Values taken from patent US20260306640A1, “TECHNOLOGIES TARGETING CELL STATES” (Auron Therapeutics, Inc., priority 2023, published 2026).
